From ChEMBL document CHEMBL1201862, “PubChem BioAssay data set” (2004) come the findings set out here.

Some test systems named below: Malme-3M; OVCAR-5; COLO 205; M14; SK-OV-3; HT-29; 786-0; DU-145; UO-31; SNB-19; RXF 393; U-251; HOP-62; BT-549; OVCAR-4; Hs-578T; RPMI-8226; MCF7; HCC 2998.
Common to all, as to experiment: DTP human tumour cell line panel, 48 h

As usually defined, the GI50 is the concentration giving 50% growth inhibition.

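Cells were grown in 96-well plates and exposed to each compound for 48 hours at five concentrations; endpoints were interpolated linearly between bracketing concentrations, or set to the highest concentration if not reached. Here, GI50 denotes the concentration required for 50% inhibition of growth.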 The source made the active and inactive calls. Rule as the data show it: active = GI50 up to about 1.1 µM and inactive = higher. Where only a bound is given, the exact number is not on record here.

Regarding `c1ccc2cc(NCNc3ccc4ccccc4c3)ccc2c1`, the GI50 is 0.927 µM (active) with Malme-3M; 21.3 µM (inactive) in the experiment with OVCAR-5; 18.8 µM (inactive) in the experiment on COLO 205; 15.5 µM (inactive) in the experiment on M14; 33.6 µM (inactive) in the experiment with SK-OV-3; 19 µM (inactive) with HT-29. The GI50 was 17.3 µM (inactive) in the experiment with 786-0; 14.4 µM (inactive) with DU-145; 13.7 µM (inactive) in the experiment with UO-31; 28.1 µM (inactive) in the experiment on SNB-19; 10.3 µM (inactive) in the experiment with RXF 393; 23.3 µM (inactive) in the experiment on U-251. The GI50 in the experiment on HOP-62 was 19.5 µM (inactive); in the experiment on BT-549, 24.9 µM (inactive); with OVCAR-4 it was 12.5 µM (inactive); with Hs-578T it was 37.8 µM (inactive); in the experiment with RPMI-8226, 6.1 µM (inactive); in the experiment with MCF7 it was 11.8 µM (inactive).

In the case of `CC(=O)OC1C2CCC1C1C2N=NN1c1ccc([N+](=O)[O-])cc1` (stereo not given), the GI50 in the experiment on Malme-3M, in the experiment on OVCAR-5, in the experiment on COLO 205, in the experiment with M14, in the experiment with HCC 2998 and with SK-OV-3 was > 100 µM (inactive) each time. For the same compound, the GI50 in the experiment with HT-29, in the experiment with 786-0, in the experiment with DU-145, in the experiment on UO-31, with SNB-19 and in the experiment with U-251 was > 100 µM (inactive) throughout. Also, the GI50 in the experiment with HOP-62, in the experiment on BT-549, with OVCAR-4, with Hs-578T, with RPMI-8226 and in the experiment with MCF7 was > 100 µM (inactive) in each case.

Consider `COc1ccc(-n2cnc3c(NC(CCSC)C(=O)O)ncnc32)cc1` (stereo not given), for which the GI50 in the experiment with OVCAR-5, in the experiment with COLO 205, in the experiment on M14, in the experiment on HCC 2998, in the experiment with SK-OV-3 and in the experiment on HT-29 was > 100 µM (inactive) each time. In addition, the GI50 with 786-0, in the experiment with DU-145, in the experiment on UO-31, in the experiment on SNB-19, in the experiment with U-251 and in the experiment with HOP-62 was > 100 µM (inactive) throughout. Also, the GI50 with BT-549, with OVCAR-4, in the experiment on Hs-578T, in the experiment with RPMI-8226 and in the experiment on MCF7 was > 100 µM (inactive) each time.

On to `C=CCSc1nc2c(N)ncnc2n1C1OC(CO)C(O)C1O` (stereo not given), for which the GI50 with Malme-3M, with OVCAR-5, in the experiment with COLO 205, in the experiment with M14, in the experiment with SK-OV-3 and in the experiment with HT-29 was > 100 µM (inactive) each time. In addition, the GI50 with 786-0, with DU-145, with UO-31, with SNB-19, in the experiment on RXF 393 and in the experiment with U-251 was > 100 µM (inactive) each time. Besides, the GI50 in the experiment with HOP-62, with BT-549, in the experiment with OVCAR-4, in the experiment on Hs-578T, in the experiment on RPMI-8226 and in the experiment with MCF7 was > 100 µM (inactive) in each case.

As for `COC(=O)NC(C(F)(F)F)(C(F)(F)F)P1(=O)OCCCO1`, the GI50 is 26.1 µM (inactive) with OVCAR-5; 23 µM (inactive) in the experiment with COLO 205; 24.8 µM (inactive) with M14; 18.9 µM (inactive) in the experiment on SK-OV-3; 23.8 µM (inactive) with HT-29; 36.9 µM (inactive) with 786-0. Besides, the GI50 is 53.8 µM (inactive) in the experiment on DU-145; 18.3 µM (inactive) in the experiment with UO-31; 25.5 µM (inactive) in the experiment with SNB-19; 2.74 µM (inactive) in the experiment on RXF 393; 13.1 µM (inactive) in the experiment with U-251; 21.6 µM (inactive) in the experiment on HOP-62. In addition, the GI50 with BT-549 was 22.1 µM (inactive); in the experiment on OVCAR-4, 32.6 µM (inactive); in the experiment on Hs-578T, 37.4 µM (inactive); in the experiment on RPMI-8226 it was 18.1 µM (inactive); in the experiment on MCF7, 31.3 µM (inactive).

`CCCCCCNC(=O)c1cnc(Cl)cn1`: the GI50 was 16.7 µM (inactive) in the experiment on Malme-3M; 17.3 µM (inactive) in the experiment on OVCAR-5; 18.4 µM (inactive) in the experiment with COLO 205; 13.2 µM (inactive) with M14; 22.9 µM (inactive) with SK-OV-3; 33.1 µM (inactive) with HT-29. The GI50 was 26.1 µM (inactive) in the experiment on 786-0; 16.1 µM (inactive) with DU-145; 1.85 µM (inactive) with UO-31; 17.5 µM (inactive) with SNB-19; 11.5 µM (inactive) in the experiment on U-251; 16.1 µM (inactive) with HOP-62. Also, the GI50 in the experiment on BT-549 was 26.2 µM (inactive); in the experiment with OVCAR-4, 20.6 µM (inactive); in the experiment with Hs-578T, 14.2 µM (inactive); with RPMI-8226 it was 29 µM (inactive); with MCF7, 5.15 µM (inactive).

`N#CCN(CC#N)C1CC=CCC1N(CC#N)CC#N` (stereo not given): the GI50 with Malme-3M, with OVCAR-5, with COLO 205, with M14, with SK-OV-3 and in the experiment on HT-29 was > 100 µM (inactive) throughout. For the same compound, the GI50 with 786-0, with DU-145, in the experiment with UO-31, with SNB-19, in the experiment with RXF 393 and in the experiment on U-251 was > 100 µM (inactive) throughout. For the same compound, the GI50 with HOP-62, in the experiment on BT-549, with OVCAR-4, with Hs-578T, in the experiment with RPMI-8226 and in the experiment on MCF7 was > 100 µM (inactive) each time.

On to `O=C1Nc2ccccc2S/C1=C\c1ccc(C(F)(F)F)cc1`, for which the GI50 with Malme-3M, with OVCAR-5, in the experiment with COLO 205, in the experiment on M14, in the experiment on SK-OV-3 and in the experiment on HT-29 was > 100 µM (inactive) each time. Further, the GI50 in the experiment with 786-0 was > 100 µM (inactive); with DU-145 it was > 100 µM (inactive); in the experiment on UO-31 it was 94 µM (inactive); in the experiment with SNB-19 it was > 100 µM (inactive); with RXF 393, > 100 µM (inactive); in the experiment with U-251, > 100 µM (inactive). The GI50 in the experiment with HOP-62, with BT-549, in the experiment with OVCAR-4, in the experiment on Hs-578T, in the experiment with RPMI-8226 and with MCF7 was > 100 µM (inactive) each time.

In the case of `c1ccc(Cn2c(-c3ccc(-c4ccccc4)cc3)cc3ccccc32)cc1`, the GI50 was 60 µM (inactive) in the experiment on Malme-3M; > 100 µM (inactive) with OVCAR-5; > 100 µM (inactive) in the experiment on COLO 205; > 100 µM (inactive) in the experiment on M14; > 100 µM (inactive) with HCC 2998; > 100 µM (inactive) with SK-OV-3. Moreover, the GI50 in the experiment on HT-29, in the experiment with 786-0, in the experiment with DU-145, with UO-31, with SNB-19 and in the experiment on U-251 was > 100 µM (inactive) each time. In addition, the GI50 in the experiment with HOP-62 was > 100 µM (inactive); in the experiment with BT-549, > 100 µM (inactive); with OVCAR-4, > 100 µM (inactive); in the experiment on Hs-578T it was 24.1 µM (inactive); with RPMI-8226, > 100 µM (inactive); in the experiment on MCF7, > 100 µM (inactive).

Take `CNC(=O)c1cc(NC(=O)N(CCC#N)CCN(C(=O)N[C@@H](Cc2ccccc2)C(=O)N[C@@H](CC(C)C)C(=O)NC)c2ccccc2)ccc1OC`: the GI50 with Malme-3M was 17.3 µM (inactive); in the experiment on OVCAR-5, > 100 µM (inactive); with COLO 205 it was > 100 µM (inactive); in the experiment on M14, > 93.3 µM (inactive); in the experiment with SK-OV-3 it was > 100 µM (inactive); in the experiment with HT-29, > 100 µM (inactive). The GI50 in the experiment on 786-0 is > 55.2 µM (inactive); in the experiment with DU-145, > 54.8 µM (inactive); in the experiment with UO-31, > 52 µM (inactive); with SNB-19, > 59.2 µM (inactive); in the experiment with RXF 393, > 54.6 µM (inactive); with U-251 it was > 100 µM (inactive). For the same compound, the GI50 in the experiment with HOP-62 is > 100 µM (inactive); in the experiment on BT-549 it was > 69.5 µM (inactive); with OVCAR-4, > 100 µM (inactive); in the experiment with Hs-578T, 58.7 µM (inactive); in the experiment on RPMI-8226, 56.8 µM (inactive); in the experiment with MCF7, > 76 µM (inactive).

With `Clc1ccc(C(c2ccc(Cl)cc2)c2cncnc2)cc1`, the GI50 in the experiment with Malme-3M was 19.1 µM (inactive); in the experiment on OVCAR-5, 15.6 µM (inactive); with COLO 205, 17.1 µM (inactive); in the experiment with M14, 16.4 µM (inactive); with SK-OV-3, 16 µM (inactive); in the experiment on HT-29 it was 15.1 µM (inactive). Further, the GI50 with 786-0 is 17.3 µM (inactive); in the experiment with DU-145 it was 17.5 µM (inactive); in the experiment with UO-31, 11.9 µM (inactive); in the experiment with SNB-19 it was 18.1 µM (inactive); in the experiment with RXF 393 it was 12.6 µM (inactive); with U-251 it was 17.3 µM (inactive). Besides, the GI50 was 17.2 µM (inactive) in the experiment with HOP-62; 13.9 µM (inactive) with BT-549; 15.2 µM (inactive) in the experiment on OVCAR-4; 18.3 µM (inactive) with Hs-578T; 34.4 µM (inactive) in the experiment with RPMI-8226; 15.3 µM (inactive) in the experiment on MCF7.
